Results as given in PMC6437269, “OXA-48-Mediated Ceftazidime-Avibactam Resistance Is Associated with Evolutionary Trade-Offs” (mSphere, 2019).

What was measured:
OXA-48 = target: T1, OXA-48 (Klebsiella pneumoniae, UniProt Q6XEC0); test: biochemical; conditions: nitrocefin reporter substrate; enzyme and inhibitor incubated 5 min; error = 95% CI
T1 construct: made in house

OXA-48:P68A = OXA-48:P68A (Klebsiella pneumoniae, UniProt Q6XEC0, P68A); test: IC50 with nitrocefin as reporter substrate, OXA-48:P68A; format: biochemical
OXA-48:P68A, sequence (Q6XEC0 23-265 P68A): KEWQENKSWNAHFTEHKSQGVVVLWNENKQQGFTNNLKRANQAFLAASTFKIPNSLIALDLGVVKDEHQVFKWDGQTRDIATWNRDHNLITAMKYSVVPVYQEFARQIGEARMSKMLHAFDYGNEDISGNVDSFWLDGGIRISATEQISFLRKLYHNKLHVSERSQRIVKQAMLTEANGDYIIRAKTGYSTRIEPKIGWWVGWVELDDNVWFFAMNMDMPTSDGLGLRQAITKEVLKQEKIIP

T1 sequence (Q6XEC0 23-265 limits assumed): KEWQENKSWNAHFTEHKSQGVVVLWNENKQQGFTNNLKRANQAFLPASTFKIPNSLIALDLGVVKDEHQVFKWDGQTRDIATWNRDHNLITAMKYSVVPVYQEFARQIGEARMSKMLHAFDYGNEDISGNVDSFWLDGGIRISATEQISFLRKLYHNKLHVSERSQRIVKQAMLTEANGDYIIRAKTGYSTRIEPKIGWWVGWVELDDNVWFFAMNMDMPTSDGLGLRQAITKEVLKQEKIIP

## C[C@]1(Cn2ccnn2)[C@H](C(=O)O)N2C(=O)C[C@H]2S1(=O)=O [Tazobactam, tazobactam]
OXA-48
  IC50: 95 ± 9 µM
OXA-48:P68A; P68A compared to native OXA-48, 5 min
  reduction in the IC50: > 20 fold
OXA-48:P68A; nitrocefin reporter substrate, enzyme and inhibitor incubated 5 min, error = 95% CI
  IC50: 4 ± 1 µM
